Measurements from patent US9931287B2, “Simple micro-particulate suspension of behentrimonium chloride with favorable distributive and adsorptive properties” (Formula XO, Inc., priority 2013, dated 2018).

What was measured:
wet hair of individuals = experiment: Spraying onto the wet hair of individuals; format: in vivo; details: sprayed onto wet hair, left on while hair dried, combed and brushed while damp
Description: A suspension of BC/DPLC was prepared as described in Example 1. It was sprayed onto the wet hair of individuals and left on while the hair dried. The hair was combed and brushed while still damp.
A solution of BC, equal in the concentration BC as in Example 1, was also sprayed on the wet hair of an individual, as described above.

[1] = Appearance of solutions after cooling to room temperature; format: physicochemical; details: cooled from 85° C. to room temperature
Description: A solution of BC is prepared by adding 20 grams BTMC-85 (Mason chemical company, 80% active by weight) to 330 ml of water and heating to 85° C. 50 grams of DPLC (SL-5, Mason chemical company, 35% active by weight) is added. The solution is clear and a slight yellow in color. A solution of BC is prepared in water as above but without addition of DPLC. Both solutions are cooled to room temperature.

[2] = Spraying of formulations onto surface of a pan of water (dilution stability of aggregates); format: physicochemical; details: mixed vigorously, sprayed onto surface of a pan of water at room temperature (20° C.)
Description: The two formulations are each mixed vigorously to disperse their contents and then sprayed onto the surface of a pan of water at room temperature (20° C.).

[3] = Spraying onto a clear glass surface held perpendicular to the ground (retention); format: physicochemical; details: sprayed on clear glass held perpendicular to the ground; same BC concentration
Excerpt: A BC/DPLC suspension prepared as in Example 1 and a BC solution (at the same concentration) are sprayed on to a clear glass surface held perpendicular to the ground. The liquids run freely downward. […] This teaches that spraying of the BC/DPLC formulation achieves the desired benefit, as expected in its use on hair and skin.

With `CCCCCCCCCCCCCCCCCCCCCC[N+](C)(C)C` [BC, Behentrimonium chloride (N,N,N-trimethyldocosan-1-aminium chloride] the feel of hair (wet hair of individuals) was “oily, and lacked the feel and management properties of the BC/DPLC formulation”, the “appearance of solution after cooling” value [1] was “forms a uniform milky suspension” and the “behaviour on dilution in water” value [2] was “gradually diffuses down into the water layer resulting in a nearly clear, transparent solution”. For the same compound, the “appearance of glass surface after liquid runs off” value [3] was “clear”.
